Results on 26 compounds are retold here after PubChem BioAssay (NCI).

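Cells were grown in 96-well plates and exposed to each compound for 48 hours at five concentrations; endpoints were interpolated linearly between bracketing concentrations, or set to the highest concentration if not reached. At the GI50, growth is halved. TGI denotes the concentration required for complete inhibition of growth.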

For orientation: TGI means the concentration at which net growth stops. The low end stands for more potent growth arrest, the high end for less potent growth arrest. What is called GI50 is the concentration that inhibits growth by half.

What all share (assay): DTP human tumour cell line panel, 48 h
Assay [1] relates to SNB-75 CNS.
Assay [2] relates to DMS 114 small cell lung.
Assay [3] has as its system RXF 393 renal.
Assay [4] relates to LXFL 529 NSCLC.
The subject of assay [5] is OVCAR-5 ovarian.
For assay [6], the system named is HCC-2998 colon.
In assay [7] the test system is UO-31 renal.
Assay [8] relates to OVCAR-3 ovarian.
Assay [9] has as its system NCI/ADR-RES ovarian.
The subject of assay [10] is BT-549 breast.

For the compound `CCN(CC)CC(=O)/C=C/c1ccc(C)cc1`, the total growth inhibition concentration (TGI) in [1] was 55.1 µM; in assay [2], 37.9 µM; in assay [3] it was 44.2 µM; in assay [4], 33 µM; in assay [5], > 100 µM; in assay [6], 31.7 µM. The TGI in assay [7] came to 39.8 µM; in [8] it was 45.1 µM.

Consider `NC1CCCCC1N.O=C([O-])P(=O)([O-])[O-].[Na+].[Pt+4]` (stereo not drawn), for which the GI50 in assay [1], in [3], in [4], in [5], in assay [7] and in [8] was > 100 µM each time. Further, the TGI in assay [1], in assay [3], in assay [4], in assay [5], in assay [7] and in assay [8] was > 100 µM throughout.

Take `O=c1[nH]c(-c2ccccc2)nc2ccc(Cl)cc12`: the TGI in assay [2], in [3], in [4], in assay [5], in [6] and in assay [7] was > 100 µM throughout. In addition, the total growth inhibition concentration (TGI) in assay [8] was > 100 µM.

For `O=S(=O)([O-])[O-].[Cl-].[NH2-].[NH2-].[NH2-].[NH2-].[Ru+3].c1ccc(-c2cccnc2)cc1`, the GI50 in assay [1] was 88.9 µM; in assay [4], > 100 µM; in assay [5] it was > 100 µM; in assay [6], > 100 µM; in [7], > 100 µM; in assay [8] it was > 100 µM. For the same compound, the TGI in assay [1], in assay [4], in assay [5], in [6], in assay [7] and in assay [8] was > 100 µM in each case.

On to `Cc1cc2c(cc1C)[n+](=O)c(C(=O)/C=C/c1ccc(Cl)cc1)c(C)n2[O-]`, for which the TGI in assay [1] was 45.5 µM; in [2] it was 94.4 µM; in [4], > 100 µM; in [5], > 100 µM; in assay [6] it was 46.1 µM; in [7] it was 39.6 µM. Also, the TGI in assay [8] was > 100 µM.

As to `COc1cc(N=Nc2ccccc2)cc(/C=N\[N-]C(N)=S)c1[O-].COc1cc(N=Nc2ccccc2)cc(/C=N\[N-]C(N)=S)c1[O-].[Fe+4]`, the GI50 in assay [1] was 35.2 µM; in assay [2], 11.8 µM; in assay [3], 10.9 µM; in assay [4] it was 13.7 µM; in [6], 29.7 µM; in [7], 30.6 µM. Moreover, the GI50 in assay [8] was > 100 µM. Also, the concentration for total growth inhibition (TGI) in assay [1] was > 100 µM; in assay [2], 83.4 µM; in assay [3], > 100 µM; in assay [4] it was > 100 µM; in assay [6] it was > 100 µM; in assay [7], > 100 µM. For the same compound, the total growth inhibition concentration (TGI) in assay [8] was > 100 µM.

Turning to `O=C(O)CNS(=O)(=O)c1ccc(NC(=O)c2ccc(F)cc2)cc1`, the TGI in assay [1], in assay [3], in assay [4], in assay [5], in assay [6] and in assay [7] was > 100 µM in each case. In addition, in assay [8], the concentration for total growth inhibition (TGI) was > 100 µM.

As to `O=C1CCC2CCc3cccc4oc1c2c34` (stereo not drawn), the TGI in [1], in [2], in [3], in assay [4], in assay [6] and in [8] was > 100 µM each time.

Consider `CC1=C(C)CC2(SC1)C(=O)c1ccccc1C2=O`, for which the TGI in assay [1], in assay [2], in assay [3], in assay [4], in assay [5] and in assay [6] was > 100 µM in each case. The concentration for total growth inhibition (TGI) in assay [7] is > 100 µM.

As for `CN(C)c1ccc(/C=C/C(=O)C(C)(C)C)cc1Br`, the TGI is 70.3 µM in [1]; 40.1 µM in [2]; 92.4 µM in assay [4]; > 100 µM in assay [5]; 73.9 µM in assay [6]; > 100 µM in assay [7]. For the same compound, the TGI in [8] is > 100 µM.

`COc1ccc(S(=O)(=O)N/N=C/CN2C(=O)c3ccccc3C2=O)cc1OC`: the TGI in assay [1], in [2], in assay [3], in [4], in [6] and in assay [7] was > 100 µM throughout. Besides, the total growth inhibition concentration (TGI) in [8] was > 100 µM.

On to `Cn1ccnc1C(c1nccn1C)C(C)(C)[N+](=O)[O-]`, for which the TGI in [1], in [2], in assay [3], in assay [6] and in assay [8] was > 100 µM in each case.

For `C=CCC12CCC(=O)C=C1CCC1(C2)OCCO1` (stereo not drawn), the TGI in assay [1], in [2], in assay [3], in [4], in [6] and in [7] was > 100 µM throughout. Also, the total growth inhibition concentration (TGI) in [8] was > 100 µM.

As to `CCOCC(=O)N[C@H]1CCc2cc(OC)c(OC)c(OC)c2-c2ccc(SC)c(=O)cc21`, the total growth inhibition concentration (TGI) in [1] is 5.11 µM; in assay [2], < 0.01 µM; in assay [3], 2.33 µM; in assay [4], > 100 µM; in [5], > 100 µM; in assay [7], > 100 µM. In addition, the TGI in assay [8] is < 0.0658 µM.

Regarding `N#CCCN(CCC#N)c1ccc(/C=C2\N=C(COc3ccc(Cl)cc3Cl)OC2=O)cc1`, the TGI in assay [1], in assay [2], in assay [4], in [5], in assay [6] and in [7] was > 100 µM throughout. The TGI in assay [8] is > 100 µM.

On to `CSc1ccc(-c2cc(-c3ccc(NC(=O)CCCN4CCCC4)cc3)nc(-c3ccc(NC(=O)CCCN4CCCC4)cc3)c2)cc1`, for which the GI50 was 1.64 µM in assay [1]; 2.23 µM in assay [3]; 12.4 µM in assay [9]; 2.28 µM in [5]; 2.49 µM in assay [6]; 2.21 µM in assay [10]. Moreover, the GI50 in assay [7] was 15.5 µM; in [8], 3.97 µM. Also, the TGI was found to be 4.99 µM in [1]; 5.93 µM in assay [3]; 31.3 µM in assay [9]; 4.86 µM in assay [5]; 6.5 µM in [6]; 5.49 µM in [10]. Also, the TGI in assay [7] is 37.8 µM; in [8] it was 14.6 µM.

As for `CNS(=O)(=O)NN(C)S(=O)(=O)c1ccc(Cl)cc1`, the total growth inhibition concentration (TGI) in [1], in assay [2], in assay [3], in [4], in assay [6] and in [7] was > 100 µM each time. In assay [8], the concentration for total growth inhibition (TGI) is > 100 µM.

For the compound `COc1ccc(Nc2ccnc(NCCNc3ccnc4cc(Cl)ccc34)n2)cc1`, the GI50 in assay [1] is 1.17 µM; in [3] it was 1.39 µM; in assay [9], 3.9 µM; in assay [5], 1.29 µM; in assay [6], 1.5 µM; in [10] it was 1.86 µM. For the same compound, the figures for the GI50 in [7] and in assay [8] were 1.5 µM and 2.61 µM, respectively. In addition, the total growth inhibition concentration (TGI) was 2.52 µM in assay [1]; 3.41 µM in assay [3]; 16.9 µM in [9]; 7.13 µM in [5]; 3.48 µM in assay [6]; 7.01 µM in assay [10]. The TGI in assay [7] is 3.7 µM; in assay [8] it was 10.3 µM.

As for `CCN(CC)c1ccc(N=C2C=C(C(=O)Nc3ccc(S(C)(=O)=O)cc3)C(=O)c3ccccc32)c(C)c1`, the GI50 in assay [1] was 3.08 µM; in assay [3], > 100 µM; in assay [9], 94 µM; in [5], > 100 µM; in [6], > 100 µM; in assay [10] it was 0.831 µM. The GI50 in [7] is 67.5 µM; in assay [8] it was 3.78 µM. In addition, the TGI in assay [1], in assay [3], in assay [9], in assay [5], in [6] and in assay [10] was > 100 µM each time. Moreover, the total growth inhibition concentration (TGI) in [7] and in [8] was > 100 µM throughout.

Take `O=C(Nc1ncc(Cc2ccccc2)s1)c1ccc2c(c1)OCCCO2`: the GI50 in [1] was 0.613 µM; in [3], 1.78 µM; in assay [9], 0.547 µM; in assay [5], 11.5 µM; in assay [6], 0.885 µM; in [10], 1.93 µM. Further, the GI50 was 1.42 µM in assay [7] and 0.614 µM in [8]. For the same compound, the TGI in assay [1] was > 29.3 µM; in [3], > 100 µM; in assay [9], > 100 µM; in [5], > 100 µM; in [6], > 100 µM; in assay [10] it was > 100 µM. The total growth inhibition concentration (TGI) in [7] and in [8] was > 100 µM each time.

`C[C@@H]1COCCN1c1nc(-c2cnc(N)cc2C(F)F)nc(N2[C@H](C)COC[C@@H]2C)n1`: the GI50 is 0.0682 µM in assay [1]; 0.0668 µM in assay [3]; 0.4 µM in assay [9]; 0.392 µM in assay [5]; 0.31 µM in assay [6]; 0.144 µM in assay [10]. The figures for the GI50 in [7] and in [8] were 0.0575 µM and 0.293 µM, respectively. The TGI in assay [1] is 0.571 µM; in assay [3], 0.485 µM; in assay [9], 15.1 µM; in assay [5], 16.5 µM; in assay [6] it was 12.2 µM; in assay [10], 1.75 µM. Moreover, the TGI in assay [7] turned out to be 11 µM; in assay [8], 12.7 µM.

Take `Oc1ccc2occ3c2c1CCC3`: the total growth inhibition concentration (TGI) in assay [1], in [2], in assay [3], in assay [4], in [6] and in assay [8] was > 100 µM throughout.

For `Nc1nc2c(c3ncccc13)C(c1ccc(Cl)c(Cl)c1)Cc1ncccc1-2` (stereo not drawn), the GI50 was 1.85 µM in assay [1]; 1.52 µM in assay [3]; 3.31 µM in assay [9]; 6.51 µM in assay [5]; 5.62 µM in [6]; 3.73 µM in [10]. Besides, the GI50 in assay [7] was 4.99 µM; in assay [8], 2.59 µM. In addition, the TGI stood at 6.6 µM in assay [1]; 5.25 µM in [3]; 16.1 µM in [9]; 24.2 µM in [5]; 19.1 µM in assay [6]; 16.7 µM in [10]. Besides, the TGI stood at 22 µM in [7] and 7.63 µM in [8].

With `Nc1c(C(=O)c2cccc(-c3ccc[n+]([O-])c3)c2)cnn1-c1ccc(F)cc1F`, the GI50 in [1], in assay [3], in assay [9], in [5], in [6] and in assay [10] was > 25 µM each time. For the same compound, the GI50 in [7] and in assay [8] was > 25 µM each time. The TGI in assay [1], in assay [3], in [9], in assay [5], in assay [6] and in assay [10] was > 25 µM each time. Also, the concentration for total growth inhibition (TGI) in [7] and in assay [8] was > 25 µM each time.

Turning to `COc1ccc(Nc2ncccc2/C=C/C(=O)c2cc(OC)c(OC)c(OC)c2)cc1`, the GI50 in [1] was 1.15 µM; in assay [3], 1.49 µM; in assay [9] it was 2.23 µM; in assay [5] it was 1.97 µM; in assay [6], 1.68 µM; in [10], 1.58 µM. The GI50 was 1.12 µM in assay [7] and 1.64 µM in assay [8]. The TGI turned out to be 2.37 µM in assay [1]; 2.82 µM in [3]; 13.7 µM in assay [9]; 3.83 µM in [5]; 3.09 µM in assay [6]; 3.08 µM in assay [10]. Moreover, the total growth inhibition concentration (TGI) in assay [7] was determined as 2.33 µM; in assay [8] it was 2.99 µM.

As for `CC1CCC2(NC1)OC1CC3[C@@H]4CC=C5C=CCC[C@]5(C)C4CC[C@]3(C)C1C2C` (stereo partly drawn), the concentration for total growth inhibition (TGI) in [1] was 80.6 µM; in [2], 46.8 µM; in assay [3] it was > 100 µM; in assay [5], 50 µM; in assay [6] it was 31.4 µM; in assay [7], 68.7 µM. The compound further showed a TGI in assay [8] of 80.5 µM.
